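Test compounds were applied to cells in 96-well plates for 48 hours at 5 doses. GI50 is the concentration that inhibits growth by half.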 Active and inactive are the calls of the source. Rule as the data show it: active = GI50 up to about 1.1 µM and inactive = higher.
Experiments:
Test in all cases: NCI anticancer screen, dose series, 48 h
[1] = test system: MOLT-4
[2] = test system: SR
[3] = test system: SK-MEL-2
[4] = test system: DU-145
[5] = test system: BT-549
[6] = test system: CAKI-1
[7] = test system: CCRF-CEM
[8] = test system: HCT-116
[9] = test system: SK-MEL-28
[10] = test system: IGROV-1
[11] = test system: SK-OV-3
[12] = test system: HCT-15
[13] = test system: SF-268
[14] = test system: RXF 393
[15] = test system: U-251
[16] = test system: Malme-3M
[17] = test system: ACHN
[18] = test system: NCI-H23
[19] = test system: OVCAR-5
[20] = test system: OVCAR-3
[21] = test system: SK-MEL-5
[22] = test system: RPMI-8226
[23] = test system: UO-31
[24] = test system: MCF7
[25] = test system: HCC 2998
[26] = test system: KM12
[27] = test system: 786-0
[28] = test system: SNB-19
[29] = test system: EKVX
[30] = test system: M14
[31] = test system: NCI-H226
[32] = test system: K562
[33] = test system: OVCAR-4
[34] = test system: A549
[35] = test system: UACC-62
[36] = test system: OVCAR-8
[37] = test system: SF-295
[38] = test system: TK-10
[39] = test system: UACC-257
[40] = test system: SF-539
[41] = test system: MDA-MB-231
[42] = test system: Hs-578T
[43] = test system: SN12C
[44] = test system: HOP-62
[45] = test system: MDA-N
[46] = test system: HL-60
[47] = test system: NCI/ADR-RES
[48] = test system: SNB-75
[49] = test system: SW-620
[50] = test system: T47D
[51] = test system: NCI-H460
[52] = test system: HOP-92
[53] = test system: HT-29
[54] = test system: NCI-H522
[55] = test system: PC-3
[56] = test system: A498
[57] = test system: COLO 205
[58] = test system: LOX IMVI
[59] = test system: MDA-MB-435

SMILES: CC1OC(OC2C(O[C@H]3CC[C@@]4(C)C(=CC[C@H]5[C@@H]6C[C@@H]7O[C@]8(CC[C@@H](C)CO8)[C@@H](C)[C@@H]7[C@@]6(C)CC[C@@H]54)C3)OC(CO)C(O)C2O)C(O)C(O)C1O (some centres not stated)
- GI50 [1]: 2.64 µM (inactive)
- GI50 [2]: 2.77 µM (inactive)
- GI50 [3]: 2.63 µM (inactive)
- GI50 [4]: 1.26 µM (inactive)
- GI50 [5]: 4.49 µM (inactive)
- GI50 [6]: 1.7 µM (inactive)
- GI50 [7]: 0.507 µM (active)
- GI50 [8]: 1.54 µM (inactive)
- GI50 [9]: 5.31 µM (inactive)
- GI50 [10]: 2.8 µM (inactive)
- GI50 [11]: 3.05 µM (inactive)
- GI50 [12]: 1.96 µM
- GI50 [13]: 2.44 µM (inactive)
- GI50 [14]: 1.54 µM (inactive)
- GI50 [15]: 0.544 µM (active)
- GI50 [16]: 3.15 µM (inactive)
- GI50 [17]: 1.58 µM (inactive)
- GI50 [18]: 2.28 µM (inactive)
- GI50 [19]: 2.93 µM (inactive)
- GI50 [20]: 3.4 µM (inactive)
- GI50 [21]: 3.97 µM (inactive)
- GI50 [22]: 0.698 µM (active)
- GI50 [23]: 0.638 µM (active)
- GI50 [24]: 1.82 µM (inactive)
- GI50 [25]: 1.11 µM (active)
- GI50 [26]: 0.838 µM (active)
- GI50 [27]: 1.14 µM (inactive)
- GI50 [28]: 1.01 µM (active)
- GI50 [29]: 3.1 µM (inactive)
- GI50 [30]: 1.22 µM (inactive)
- GI50 [31]: 2.49 µM (inactive)
- GI50 [32]: 1.57 µM (inactive)
- GI50 [33]: 1.22 µM (inactive)
- GI50 [34]: 0.647 µM (active)
- GI50 [35]: 1.4 µM (inactive)
- GI50 [36]: 1.45 µM (inactive)
- GI50 [37]: 1.15 µM (inactive)
- GI50 [38]: 1.53 µM (inactive)
- GI50 [39]: 1.8 µM (inactive)
- GI50 [40]: 1.21 µM (inactive)
- GI50 [41]: 1.14 µM (inactive)
- GI50 [42]: 1.86 µM (inactive)
- GI50 [43]: 1.1 µM (active)
- GI50 [44]: 1.34 µM (inactive)
- GI50 [45]: 3.29 µM (inactive)
- GI50 [46]: 0.74 µM (active)
- GI50 [47]: 1.99 µM (inactive)
- GI50 [48]: 1.24 µM (inactive)
- GI50 [49]: 0.681 µM (active)
- GI50 [50]: 3.76 µM (inactive)
- GI50 [51]: 0.327 µM (active)
- GI50 [52]: 2.95 µM (inactive)
- GI50 [53]: 0.962 µM (active)
- GI50 [54]: 1.28 µM (inactive)
- GI50 [55]: 0.581 µM (active)
- GI50 [56]: 1.51 µM (inactive)
- GI50 [57]: 2.95 µM (inactive)
- GI50 [58]: 0.805 µM (active)
- GI50 [59]: 1.41 µM (inactive)

SMILES: CCCCc1ccc(Nc2nc(Cl)c3c(ncn3C3CC(Oc4ccc(C)cc4)C(COc4ccc(C)cc4)O3)n2)cc1 (configuration not stated)
- GI50 [1]: 33.9 µM (inactive)
- GI50 [2]: > 100 µM (inactive)
- GI50 [3]: > 100 µM (inactive)
- GI50 [4]: > 100 µM (inactive)
- GI50 [5]: > 100 µM (inactive)
- GI50 [6]: > 100 µM (inactive)
- GI50 [7]: > 100 µM (inactive)
- GI50 [8]: > 100 µM (inactive)
- GI50 [10]: > 100 µM (inactive)
- GI50 [11]: > 100 µM (inactive)
- GI50 [12]: > 100 µM
- GI50 [13]: > 100 µM (inactive)
- GI50 [14]: > 100 µM (inactive)
- GI50 [15]: > 100 µM (inactive)
- GI50 [16]: > 100 µM (inactive)
- GI50 [17]: > 100 µM (inactive)
- GI50 [18]: > 100 µM (inactive)
- GI50 [19]: > 100 µM (inactive)
- GI50 [20]: > 100 µM (inactive)
- GI50 [21]: > 100 µM (inactive)
- GI50 [22]: > 100 µM (inactive)
- GI50 [23]: > 100 µM (inactive)
- GI50 [24]: 39.3 µM (inactive)
- GI50 [25]: > 100 µM (inactive)
- GI50 [26]: > 100 µM (inactive)
- GI50 [27]: > 100 µM (inactive)
- GI50 [28]: > 100 µM (inactive)
- GI50 [29]: > 100 µM (inactive)
- GI50 [30]: > 100 µM (inactive)
- GI50 [31]: > 100 µM (inactive)
- GI50 [32]: > 100 µM (inactive)
- GI50 [33]: > 100 µM (inactive)
- GI50 [34]: > 100 µM (inactive)
- GI50 [35]: > 100 µM (inactive)
- GI50 [36]: > 100 µM (inactive)
- GI50 [37]: > 100 µM (inactive)
- GI50 [38]: > 100 µM (inactive)
- GI50 [39]: > 100 µM (inactive)
- GI50 [40]: 61 µM (inactive)
- GI50 [41]: > 100 µM (inactive)
- GI50 [42]: 42.5 µM (inactive)
- GI50 [43]: > 100 µM (inactive)
- GI50 [44]: > 100 µM (inactive)
- GI50 [45]: > 100 µM (inactive)
- GI50 [46]: 87.7 µM (inactive)
- GI50 [47]: > 100 µM (inactive)
- GI50 [48]: 22.8 µM (inactive)
- GI50 [49]: > 100 µM (inactive)
- GI50 [50]: > 100 µM (inactive)
- GI50 [51]: > 100 µM (inactive)
- GI50 [52]: > 100 µM (inactive)
- GI50 [53]: > 100 µM (inactive)
- GI50 [54]: > 100 µM (inactive)
- GI50 [55]: > 100 µM (inactive)
- GI50 [56]: > 100 µM (inactive)
- GI50 [57]: > 100 µM (inactive)
- GI50 [58]: > 100 µM (inactive)
- GI50 [59]: > 100 µM (inactive)
